Reference: patent US12509452B2, “Substituted-isoxazoline-containing aromatic compound, preparation method therefor, herbicidal composition and use thereof” (QINGDAO KINGAGROOT CHEMICAL COMPOUND CO., LTD., priority 2019, dated 2025)

Experiments:
Assay in all cases: weeding effect in post-emergence stage
Assay type in all cases: in vivo
Alopecurus japonicus = test system: Alopecurus japonicus
From the text: (§1) The activity level criteria for plant damage (i.e., growth control rate) are as follows: • Level 5: growth control rate is above 85%; • Level 4: growth control rate is greater than or equal to 60% and less than 85%; • Level 3: growth control rate is greater than or equal to 40% and less than 60%; • Level 2: growth control rate is greater than or equal to 20% and less than 40%; • Level 1: growth control rate is greater than or equal to 5% and less than 20%; • Level 0: growth control rate is less than 5%.
(§2) The above growth control rates are fresh weight control rates.
(§3) Experiment on weeding effect in post-emergence stage:
(§4) Monocotyledonous and dicotyledonous weed seeds (Descurainia sophia, Capsella bursa-pastoris, Abutilon theophrasti, Galium aparine, Stellaria media, Lithospermum arvense, Rorippa indica, Alopecurus aequalis, Alopecurus japonicus, Beckmannia syzigachne, Sclerochloa dura, Conyza Canadensis, Phleum paniculatum, Veronica didyma Tenore, Bromus japonicus, Aegilops tauschii, Phalaris arundinacea, Amaranthus retroflexus, Chenopodium album, Commelina communis, Sonchus arvensis, Convolvulus arvensis, Cirsium setosum, Solanum nigrum, Acalypha australis, Digitaria sanguinalis, Echinochloa crusgalli, Setaria viridis, Setaria glauca, Leptochloa chinensis, Monochoria vaginalis, Sagittaria trifolia, Scirpus juncoides, Cyperus rotundus, Cyperus iria, Cyperus difformis, Fimbristylis, Portulaca oleracea, Xanthium sibiricum, Pharbitis nil, Conyza japonica, etc.) and major crop seeds (wheat, corn, rice, soybean, cotton, oilseed rape, millet, sorghum, potato, sesame, ricinus, etc.) were placed in plastic pots filled with soil, then covered with 0.5-2 cm of soil, allowed to grow in a good greenhouse environment. After 2 weeks of sowing, the test plants were treated in the 2-3 leaf stage. The tested compounds of the present invention were respectively dissolved in acetone, then added with Tween 80 and 1.5 liter/ha of emulsifiable concentrate of methyl oleate as synergist, diluted with a certain amount of water to obtain a solution with a certain concentration, and sprayed with a spray tower onto the plants. After the application, the plants were cultured for 3 weeks in the greenhouse, and then the experimental results of the weeding were counted. The doses of the used compounds were 500, 250, 125, 60, 15, 7.5 g a.i./ha, and the averages were obtained by repeating for three times.

Beckmannia syzigachne = test system: Beckmannia syzigachne
From the text: as §1, §2, §3, §4

Conyza japonica = test system: Conyza japonica
From the text: as §1, §2, §3, §4

Rorippa indica = test system: Rorippa indica
From the text: as §1, §2, §3, §4

Row | Compound | weeding effect in post-emergence stage, Alopecurus japonicus (activity level) (Alopecurus japonicus; dose 125 g a.i./ha) | weeding effect in post-emergence stage, Beckmannia syzigachne (activity level) (Beckmannia syzigachne; dose 125 g a.i./ha) | weeding effect in post-emergence stage, Conyza japonica (activity level) (Conyza japonica; dose 15 g a.i./ha) | weeding effect in post-emergence stage, Conyza japonica (activity level) (Conyza japonica; dose 125 g a.i./ha) | weeding effect in post-emergence stage, Rorippa indica (activity level) (Rorippa indica; dose 15 g a.i./ha) | weeding effect in post-emergence stage, Rorippa indica (activity level) (Rorippa indica; dose 125 g a.i./ha) | weeding effect in post-emergence stage, Alopecurus japonicus (activity level) (Alopecurus japonicus; dose 15 g a.i./ha) | weeding effect in post-emergence stage, Beckmannia syzigachne (activity level) (Beckmannia syzigachne; dose 15 g a.i./ha)
1 | CCOCC1(C(=O)OCC)CC(c2cc(-n3c(=O)n(C)c(=S)n(C)c3=O)c(F)cc2Cl)=NO1 (racemic) [Compound 43] | 5 (Level 5: growth control rate is above 85%) | 5 (Level 5: growth control rate is above 85%) | 4 (Level 4: growth control rate is greater than or equal to 60% and less than 85%) | 5 (Level 5: growth control rate is above 85%) | 5 (Level 5: growth control rate is above 85%) | 5 (Level 5: growth control rate is above 85%) |  | 
2 | CCOC(=O)COCC1(C(=O)OCC)CC(c2cc(-n3c(=O)n(C)c(=S)n(C)c3=O)c(F)cc2Cl)=NO1 (racemic) [Compound 54] | 5 (Level 5: growth control rate is above 85%) | 5 (Level 5: growth control rate is above 85%) |  | 5 (Level 5: growth control rate is above 85%) |  | 5 (Level 5: growth control rate is above 85%) |  | 
3 | COC(=O)C1(c2ccccc2)CC(c2cc(-n3c(=O)n(C)c(=S)n(C)c3=O)c(F)cc2Cl)=NO1 (racemic) [Compound 56] | 5 (Level 5: growth control rate is above 85%) | 5 (Level 5: growth control rate is above 85%) |  | 5 (Level 5: growth control rate is above 85%) |  | 5 (Level 5: growth control rate is above 85%) |  | 
4 | COC(=O)C1(Cc2ccccc2)CC(c2cc(-n3c(=O)n(C)c(=S)n(C)c3=O)c(F)cc2Cl)=NO1 (racemic) [Compound 59] | 5 (Level 5: growth control rate is above 85%) | 5 (Level 5: growth control rate is above 85%) |  | 5 (Level 5: growth control rate is above 85%) |  | 5 (Level 5: growth control rate is above 85%) |  | 
5 | CCOC(=O)C1(CC)CC(c2cc(-n3c(=O)cc(C(F)(F)F)n(C)c3=O)c(F)cc2Cl)=NO1 (racemic) [Compound 105] | 5 (Level 5: growth control rate is above 85%) | 5 (Level 5: growth control rate is above 85%) | 5 (Level 5: growth control rate is above 85%) | 5 (Level 5: growth control rate is above 85%) | 5 (Level 5: growth control rate is above 85%) | 5 (Level 5: growth control rate is above 85%) | 5 (Level 5: growth control rate is above 85%) | 5 (Level 5: growth control rate is above 85%)
6 | CCOC(=O)C1(C2CC2)CC(c2cc(-n3c(=O)cc(C(F)(F)F)n(C)c3=O)c(F)cc2Cl)=NO1 (racemic) [Compound 119] | 5 (Level 5: growth control rate is above 85%) | 5 (Level 5: growth control rate is above 85%) | 5 (Level 5: growth control rate is above 85%) | 5 (Level 5: growth control rate is above 85%) | 5 (Level 5: growth control rate is above 85%) | 5 (Level 5: growth control rate is above 85%) | 5 (Level 5: growth control rate is above 85%) | 5 (Level 5: growth control rate is above 85%)
7 | CCOC(=O)C1(C2CCC2)CC(c2cc(-n3c(=O)cc(C(F)(F)F)n(C)c3=O)c(F)cc2Cl)=NO1 (racemic) [Compound 126] | 5 (Level 5: growth control rate is above 85%) | 5 (Level 5: growth control rate is above 85%) |  | 5 (Level 5: growth control rate is above 85%) |  | 5 (Level 5: growth control rate is above 85%) |  | 
8 | COC(=O)C1(F)CC(c2cc(-n3c(=O)cc(C(F)(F)F)n(C)c3=O)c(F)cc2Cl)=NO1 (racemic) [Compound 129] | 5 (Level 5: growth control rate is above 85%) | 5 (Level 5: growth control rate is above 85%) |  | 5 (Level 5: growth control rate is above 85%) |  | 5 (Level 5: growth control rate is above 85%) |  | 
9 | CCOC(=O)C1(CF)CC(c2cc(-n3c(=O)cc(C(F)(F)F)n(C)c3=O)c(F)cc2Cl)=NO1 (racemic) [Compound 132] | 5 (Level 5: growth control rate is above 85%) | 5 (Level 5: growth control rate is above 85%) |  | 5 (Level 5: growth control rate is above 85%) |  | 5 (Level 5: growth control rate is above 85%) |  | 
10 | CCOC(=O)C1(C(F)F)CC(c2cc(-n3c(=O)cc(C(F)(F)F)n(C)c3=O)c(F)cc2Cl)=NO1 (racemic) [Compound 134] | 5 (Level 5: growth control rate is above 85%) | 5 (Level 5: growth control rate is above 85%) |  | 5 (Level 5: growth control rate is above 85%) |  | 5 (Level 5: growth control rate is above 85%) |  | 
11 | CCOC(=O)C1(C(F)(F)F)CC(c2cc(-n3c(=O)cc(C(F)(F)F)n(C)c3=O)c(F)cc2Cl)=NO1 (racemic) [Compound 135] | 5 (Level 5: growth control rate is above 85%) | 5 (Level 5: growth control rate is above 85%) |  | 5 (Level 5: growth control rate is above 85%) |  | 5 (Level 5: growth control rate is above 85%) |  | 
12 | CCOC(=O)C1(CCF)CC(c2cc(-n3c(=O)cc(C(F)(F)F)n(C)c3=O)c(F)cc2Cl)=NO1 (racemic) [Compound 136] | 5 (Level 5: growth control rate is above 85%) | 5 (Level 5: growth control rate is above 85%) |  | 5 (Level 5: growth control rate is above 85%) |  | 5 (Level 5: growth control rate is above 85%) |  | 
